Source: patent publication US4668664A (L'Oreal, priority 1985, dated 1987)
Values after ≈ are worked out from the molar mass of the structure shown.

Legend:
P 37 E⊕ (sensitive) = assay: Minimal Inhibiting Concentration (MIC) by the dilution method, sensitive strain P 37 E⊕; assay type: cell-based, propionibacterium acnes; conditions: Cutibacterium acnes
Source text: (§1) This method is described and employed by G. A. Denys et al, Antimicrobial Agents and Chemotherapy (1983), 23, 335-337 and J. J. Leyden et al, J. Am. Acad. Dermatol. (1983) 8 (1) 41-5, and utilizes as the strain of propionibacterium acnes, the P 37 strain furnished by Cunliffe and Holland.
(§2) After display of a standardized inoculum (DO=1.8 to 450 nm) on gelose medium (RCM+furazolidone), in a Petri dish, a disc of 9 mm in diameter is deposited in its center.
The two types of colonies are then retained by pulling away from the gelose medium (sterilized platinum loop):
(§3) (2) at 1 cm beyond the periphery of the inhibition zone the strains denominated P 37 E⊕ are retained.

P 37 E⊕ = assay: IC 50 study (inhibiting concentration at 50%), P 37 E⊕; assay type: cell-based, propionibacterium acnes; conditions: Cutibacterium acnes, read-out: IC 50 (inhibiting concentration at 50%; column head printed MIC)
Source text: as §3

P 37 E⊖ (resistant) = assay: Minimal Inhibiting Concentration (MIC) by the dilution method, resistant strain P 37 E⊖; assay type: cell-based, propionibacterium acnes; conditions: for MIC: Cutibacterium acnes, read-out: Minimal Inhibiting Concentration (MIC), P 37 E⊖ (resistant), dilution method; for relative activity on strain P 37 E⊖: in words, vs reference fatty esters / erythromycin
Method: as §1, §2
(§4) After 6 days at 36° C. in an anaerobic medium (GAS-PAK system, B.B.L.) a growth inhibition zone of the strain is clearly visible (total diameter=42 mm), the great majority of the colonies being situated at the periphery of the inhibition zone.
On the other hand, at its interior a few colonies clearly appear.
The two types of colonies are then retained by pulling away from the gelose medium (sterilized platinum loop): […]

P 37 strain = assay: Growth inhibition zone, disc on gelose medium; assay type: cell-based, propionibacterium acnes; conditions: Cutibacterium acnes, 144 h; read-out: growth inhibition zone, total diameter
Method: as §2, §4

[1] = system: propionibacterium acnes P 37 strain; assay: Minimal Inhibiting Concentration (MIC) by the dilution method, P 37 strain; assay type: cell-based; conditions: Cutibacterium acnes, P37STRAIN
Source text: as §1

P 37 E⊖ = assay: IC 50 study (inhibiting concentration at 50%), P 37 E⊖; assay type: cell-based, propionibacterium acnes; conditions: Cutibacterium acnes, read-out: IC 50 (inhibiting concentration at 50%; column head printed MIC)
P 37 = assay: IC 50 study (inhibiting concentration at 50%), P 37; assay type: cell-based, propionibacterium acnes; conditions: Cutibacterium acnes, 50% survivors at constant culture time, read-out: IC 50 (inhibiting concentration at 50%; column head printed MIC)

CC[C@H]1OC(=O)[C@H](C)[C@@H](O[C@H]2C[C@@](C)(OC)[C@@H](O)[C@H](C)O2)[C@H](C)[C@@H](O[C@@H]2O[C@H](C)C[C@H](N(C)C)[C@H]2O)[C@](C)(O)C[C@@H](C)C(=O)[C@H](C)[C@@H](O)[C@]1(C)O [Erythromycin, erythromycin A]
MIC (P 37 E⊕ (sensitive)): 0.78 µg/mL (≈ 1.06 µM)
IC50 (P 37 E⊕): 5 µg/mL (≈ 6.81 µM)
MIC (P 37 E⊖ (resistant)): > 50 µg/mL
Minimal Inhibiting Concentration (MIC) (P 37 E⊖ (resistant); P 37 E⊖ (resistant), dilution method): 50 µg/mL
zone of inhibition at 50 µg/disc (P 37 strain): 42 mm
MIC [1]: 0.78 µg/mL (≈ 1.06 µM)
IC50 (P 37 E⊖): ~100 µg/mL (≈ 136 µM)
IC50 (P 37): 50 µg/mL (≈ 68.1 µM)

CCCCC/C=C\C/C=C\C/C=C\C/C=C\CCCC(=O)O[C@H]1[C@H](O[C@@H]2[C@@H](C)[C@H](O[C@H]3C[C@@](C)(OC)[C@@H](O)[C@H](C)O3)[C@@H](C)C(=O)O[C@H](CC)[C@@](C)(O)[C@H](O)[C@@H](C)C(=O)[C@H](C)C[C@@]2(C)O)O[C@H](C)C[C@@H]1N(C)C [O--arachidonoyl-2', O-arachidonoyl-2' erythromycin A]
MIC (P 37 E⊕ (sensitive)): 6.25 µg/mL (≈ 6.13 µM)
MIC (P 37 E⊖ (resistant)): > 50 µg/mL

CCCCC/C=C/C/C=C/CCCCCCCC(=O)O[C@H]1[C@H](O[C@@H]2[C@@H](C)[C@H](O[C@H]3C[C@@](C)(OC)[C@@H](O)[C@H](C)O3)[C@@H](C)C(=O)O[C@H](CC)[C@@](C)(O)[C@H](O)[C@@H](C)C(=O)[C@H](C)C[C@@]2(C)O)O[C@H](C)C[C@@H]1N(C)C [O--linoelaidoyl-2', O-linoelaidoyl-2' erythromycin A]
MIC (P 37 E⊕ (sensitive)): 25 µg/mL (≈ 25.1 µM)
MIC (P 37 E⊖ (resistant)): 100 µg/mL (≈ 100 µM)
relative activity on strain P 37 E⊖ (P 37 E⊖ (resistant)): less active

CCCCC/C=C/C/C=C/CCCCCCCC(=O)O[C@H]1[C@H](C)O[C@@H](O[C@H]2[C@H](C)[C@@H](O[C@@H]3O[C@H](C)C[C@H](N(C)C)[C@H]3O)[C@](C)(O)C[C@@H](C)C(=O)[C@H](C)[C@@H](O)[C@](C)(O)[C@@H](CC)OC(=O)[C@@H]2C)C[C@@]1(C)OC [O--linoelaidoyl-4", O-linoelaidoyl-4" erythromycin A]
MIC (P 37 E⊕ (sensitive)): 25 µg/mL (≈ 25.1 µM)
MIC (P 37 E⊖ (resistant)): 100 µg/mL (≈ 100 µM)
relative activity on strain P 37 E⊖ (P 37 E⊖ (resistant)): less active

CCCCC/C=C\C/C=C\CCCCCCCC(=O)O[C@H]1[C@H](O[C@@H]2[C@@H](C)[C@H](O[C@H]3C[C@@](C)(OC)[C@@H](O)[C@H](C)O3)[C@@H](C)C(=O)O[C@H](CC)[C@@](C)(O)[C@H](O)[C@@H](C)C(=O)[C@H](C)C[C@@]2(C)O)O[C@H](C)C[C@@H]1N(C)C [O--linolenoyl-2', O-linoleoyl-2' erythromycin A]
MIC (P 37 E⊕ (sensitive)): 4 µg/mL (≈ 4.01 µM)
MIC (P 37 E⊖ (resistant)): 16 µg/mL (≈ 16.1 µM)

CCCCC/C=C\C/C=C\CCCCCCCC(=O)O[C@H]1[C@H](C)O[C@@H](O[C@H]2[C@H](C)[C@@H](O[C@@H]3O[C@H](C)C[C@H](N(C)C)[C@H]3O)[C@](C)(O)C[C@@H](C)C(=O)[C@H](C)[C@@H](O)[C@](C)(O)[C@@H](CC)OC(=O)[C@@H]2C)C[C@@]1(C)OC [O--linoleoyl-4", O-linoleoyl-4" erythromycin A]
MIC (P 37 E⊕ (sensitive)): 3.5 µg/mL (≈ 3.51 µM)
MIC (P 37 E⊖ (resistant)): 28 µg/mL (≈ 28.1 µM)

CCCCCCCC/C=C\CCCCCCCC(=O)O[C@H]1[C@H](O[C@@H]2[C@@H](C)[C@H](O[C@H]3C[C@@](C)(OC)[C@@H](O)[C@H](C)O3)[C@@H](C)C(=O)O[C@H](CC)[C@@](C)(O)[C@H](O)[C@@H](C)C(=O)[C@H](C)C[C@@]2(C)O)O[C@H](C)C[C@@H]1N(C)C [O--oleoyl-2']
MIC (P 37 E⊕ (sensitive)): 50 µg/mL (≈ 50.1 µM)
MIC (P 37 E⊖ (resistant)): 100 µg/mL (≈ 100 µM)

CCCCCCCCCCCCCCCCCC(=O)O[C@H]1[C@H](O[C@@H]2[C@@H](C)[C@H](O[C@H]3C[C@@](C)(OC)[C@@H](O)[C@H](C)O3)[C@@H](C)C(=O)O[C@H](CC)[C@@](C)(O)[C@H](O)[C@@H](C)C(=O)[C@H](C)C[C@@]2(C)O)O[C@H](C)C[C@@H]1N(C)C [O--stearoyl-2']
MIC (P 37 E⊕ (sensitive)): < 1.56 µg/mL
MIC (P 37 E⊖ (resistant)): > 50 µg/mL

CC/C=C\C/C=C\C/C=C\CCCCCCCC(=O)O[C@H]1[C@H](C)O[C@@H](O[C@H]2[C@H](C)[C@@H](O[C@@H]3O[C@H](C)C[C@H](N(C)C)[C@H]3O)[C@](C)(O)C[C@@H](C)C(=O)[C@H](C)[C@@H](O)[C@](C)(O)[C@@H](CC)OC(=O)[C@@H]2C)C[C@@]1(C)OC [O--α-linolenoyl-4", O-α-linolenoyl-4" erythromycin A]
MIC (P 37 E⊕ (sensitive)): 4.5 µg/mL (≈ 4.53 µM)
MIC (P 37 E⊖ (resistant)): 37 µg/mL (≈ 37.2 µM)
